The source of these data is patent publication US10472353B2, “Salt and crystal forms of PLK-4 inhibitor” (University Health Network, priority 2013, dated 2019).

A short description of data set [1]: Gravimetric moisture sorption (dynamic vapour sorption, 25° C.). The class given is physicochemical. The settings on record: for Gravimetric Moisture Sorption: 25° C. The protocol: Gravimetric moisture sorption experiments were carried out on a Hiden dynamic vapour sorption analyzer by first holding the sample at 40% RH and 25° C. until an equilibrium weight was reached or for a maximum of four hours. The sample was then subjected to an isothermal (25° C.) adsorption scan from 40 to 90% RH in steps of 10%. The sample was allowed to equilibrate to an asymptotic weight at each point for a maximum of four hours. Following adsorption, a desorption scan from […] RH (at 25° C.) was run in steps of −10% again allowing a maximum of four hours for equilibration to an asymptotic weight. An adsorption scan was then performed from 0% RH to 40% RH in steps of +10% RH.

A short description of data set [2]: Pharmacokinetics after single oral dose, powder in capsule, plasma levels of compound (I) by LC/MS. The settings on record: Sprague-Dawley rats. The class given is in vivo, female Sprague-Dawley rats. The protocol: A single oral dose in solution and as powder in capsule of the HCl salt of (I), fumarate form D and maleate form A were administered to female Sprague-Dawley rats at 5 mg/kg. Blood samples were collected in the presence of lithium heparin, and were centrifuged to generate plasma. The plasma was then analyzed for compound (I) plasma levels by LC/MS.
All animals involved in the dosing schedule were weighed and assigned numbers. All capsules (Size 9 porcine hard gelatin capsules, Torpac) corresponding with each animal to be dosed were carefully numbered with a fine tip Sharpie. A small plastic weighing dish was placed on the scale, with one capsule lid placed on the dish and the base of the capsule loader with the other part of the capsule was loaded in the reservoir. The balance was tared. A funnel was placed on top of the capsule loading apparatus and the total mass was carefully noted. A piece of 4″×4″ wax paper was folded in half creating a crease down the median. A small amount of finely ground compound (Ground the compound if required using mortar and pestle) was deposited in the crease of the wax paper and refolded. The folded wax paper was gently angled over the capsule loader funnel apparatus. A fine scapula was used to tease an amount of compound powder out of the crease onto the funnel allowing it to trickle into the loading bay and ultimately the capsule. The difference in mass from the total mass was noted. The capsule loading funnel was removed and the balance door closed to ascertain the absolute weight of compound inside the capsule. The funnel was returned to the capsule loading apparatus and loading continued until the desired amount of drug was inside the capsule. Note: When adding minute quantities to the capsule, simply brushed fine powered drug that settled on the funnel into the loading column. The funnel was removed and the weight was recorded. Calculated the amount of actual drug by multiplying weighed material by the bioequivalence ratio. The amount of actual drug was recorded. The capsule lid on the weighing dish was used to close the capsule tightly until it clicked into place.
All animals (n=3/group) were dosed orally in a volume of 5 mL/kg. Following dosing, each rat was bled at each of the designated time points. For control animals, blood was collected by the same procedure. Blood was collected from the lateral saphenous vein. Blood aliquots (˜50 μL) were collected in tubes coated with lithium heparin, mixed gently, then kept on ice and centrifuged at 2,500×g for 15 minutes at RT, within 1 hour of collection. The plasma layer was collected, kept on ice and finally maintained frozen at −80° C. until further processing.
Bioanalytical quantitation using HPLC/tandem quadruple mass spectrometry (HPLC-MS) was performed. Plasma concentrations and […] were calculated and reported.
A 5 mg/mL standard solution in DMSO was diluted 100 fold and subsequently serial diluted in 50% DMSO. Aliquots (2 μL) of the serial dilutions were mixed with 18 μL of control plasma (20 μL total) for use as a standard curve. Plasma samples (20 μL) and standard samples were then diluted 5× with ice cold acetonitrile containing 100 ng/mL verapamil as internal standard (80% (v/v) acetonitrile). Acetonitrile precipitated samples and standards were filtered through 0.22 μm membranes in a 96-well format. Filtrates were then diluted with water to 30% acetonitrile.
LC: 10 μL of each sample and standard were injected onto a Waters Acquity CSH 1.7 μm 2.1×100 mm column at 0.6 mL/min by an Acquity UPLC. The C18 column was equilibrated at 10% acetonitrile. Compounds were eluted with a gradient to 99% acetonitrile. All mobile phases contained 0.1% (v/v) formic acid.
MS: Column eluent was analyzed by electrospray ionization into a tandem quadrupole mass spec system (Waters Xevo TQ). Eluent composition was analyzed for three ion-pairs specific for the internal standard and three ion-pairs specific for the analyte. […]

The nature of data set [3]: Solubility in deionized water. The class given is physicochemical.
The nature of data set [4]: Differential scanning calorimetry, phase transition of the polymorphs. The class given is physicochemical. The protocol:
DSC analyses were carried out on a Mettler 822e differential scanning calorimeter or a TA instruments Q2000. Samples were weighed in an aluminum pan, covered with a pierced lid, and then crimped. Analysis conditions were 30-120, 30-200, 30-300° C. and 40-300° C. ramped at 10° C./min.
Form D can be directly prepared as follows: A 250-mL three neck RBF equipped with a stir bar was charged with compound (I) (6.01 g, 11 mmol) and fumaric acid (1.41 g, 12 mmol). Acetone (50 mL) was added and the slurry was heated to 50° C. until the solution became clear. Precipitation was observed after 10 min, and stirring was continued for an additional 30 min. MTBE (25 mL) was added and the solution was cooled to rt and stirred overnight. The solids were filtered and dried under vacuum at 60° C. for 2 d to give the title compound (I) as a white solid (6.65 g, 91%).
For orientation: DSC measures the heat that a sample takes up or gives off during a temperature scan.

Where a name gives a salt, the structure may show the parent alone. Read-outs that look alike come from different tables or passages of the source.

As for `COc1ccc2c(c1)[C@]1(C[C@H]1c1ccc3c(/C=C/c4ccc(CN5C[C@@H](C)O[C@@H](C)C5)cc4)n[nH]c3c1)C(=O)N2` [Fumarate B], the “Gravimetric Moisture Sorption” value in data set [1] (60% RH) is reported as 3.7 wt % 60% RH. Moreover, in data set [1] (90% RH), the “Hydrate formed on moisture sorption” value is “tetrahydrate” and the “Gravimetric Moisture Sorption” value was determined as 10.5 wt % 90% RH. Also, in data set [1] (listed as Form B), the “Hygroscopicity (in words)” value is listed as “hygroscopic”.
For the compound `COc1ccc2c(c1)[C@]1(C[C@H]1c1ccc3c(/C=C/c4ccc(CN5C[C@@H](C)O[C@@H](C)C5)cc4)n[nH]c3c1)C(=O)N2` [1:1 compound (I) maleate], in data set [1], the “Hygroscopicity (in words)” value was “non-hygroscopic”.
As usually defined, the Cmax is the highest concentration seen after dosing. Consider `COc1ccc2c(c1)[C@]1(C[C@H]1c1ccc3c(/C=C/c4ccc(CN5C[C@@H](C)O[C@@H](C)C5)cc4)n[nH]c3c1)C(=O)N2` [Fumarate (form D)], for which the “Gravimetric Moisture Sorption” value in data set [1] (60% RH, listed as Fumarate D) turned out to be 2.1 wt % 60% RH; in data set [1] (90% RH, listed as Fumarate D), 4.0 wt % 90% RH. The compound also came in with an AUC0-tlast in data set [2] (5.0 mg/kg) of 2780 ng·h/mL. In addition, the Cmax in data set [2] (5.0 mg/kg) is listed as 270 ng/mL. Besides, the “Solubility in DI water” value in data set [3] (listed as Fumarate D) turned out to be 0.17 mg/mL. Further, the “Stability among the four fumarate polymorphs (phase transition by DSC)” value in data set [4] is on record as “highest stability”.
As for `COc1ccc2c(c1)[C@]1(C[C@H]1c1ccc3c(/C=C/c4ccc(CN5C[C@@H](C)O[C@@H](C)C5)cc4)n[nH]c3c1)C(=O)N2` [Fumarate C], the “Solubility in DI water” value in data set [3] was 0.625 mg/mL.
`COc1ccc2c(c1)[C@]1(C[C@H]1c1ccc3c(/C=C/c4ccc(CN5C[C@@H](C)O[C@@H](C)C5)cc4)n[nH]c3c1)C(=O)N2` [Phosphate]: the “Gravimetric Moisture Sorption” value was 6.1 wt % 60% RH in data set [1] (60% RH) and 10.9 wt % 90% RH in data set [1] (90% RH). Further, the “Solubility in DI water” value in data set [3] is at least 100 mg/mL.
Regarding `COc1ccc2c(c1)[C@]1(C[C@H]1c1ccc3c(/C=C/c4ccc(CN5C[C@@H](C)O[C@@H](C)C5)cc4)n[nH]c3c1)C(=O)N2` [1:1 Compound (I) fumarate], the “Hygroscopicity (in words)” value in data set [1] is “non-hygroscopic”.
As to `COc1ccc2c(c1)[C@]1(C[C@H]1c1ccc3c(/C=C/c4ccc(CN5C[C@@H](C)O[C@@H](C)C5)cc4)n[nH]c3c1)C(=O)N2` [HCl], in data set [2] (female, Sprague-Dawley, rat, plasma, po, 5 mg/kg, read-out: AUC0-tlast), the AUC(0-t) was 2400 ng·h/mL. Besides, in data set [2] (female, Sprague-Dawley, rat, plasma, po, 5 mg/kg, read-out: Cmax), the highest concentration (Cmax) worked out at 250 ng/mL. Moreover, the “Solubility in DI water” value in data set [3] was at least 100 mg/mL.
Take `COc1ccc2c(c1)[C@]1(C[C@H]1c1ccc3c(/C=C/c4ccc(CN5C[C@@H](C)O[C@@H](C)C5)cc4)n[nH]c3c1)C(=O)N2` [Maleate (form A)]: the “Gravimetric Moisture Sorption” value in data set [1] (60% RH, listed as Maleate A) is reported as 1.3 wt %, 60% RH. Further, the “Gravimetric Moisture Sorption” value in data set [1] (90% RH, listed as Maleate A) is 2.2 wt %, 90% RH. For the same compound, in data set [2] (5.0 mg/kg), the AUC0-tlast is 1500 ng·h/mL and the highest concentration (Cmax) is 200 ng/mL.
